Like-named read-outs stand apart in the source and are kept apart here.
Key:
gray mold fungus [1] = test: Test Example 3: cucumber gray mold, foliage application before inoculation; settings: 20 ppm; cucumber seedling, applied before inoculation, 4 days
Method: Each of plastic pots was filled with sandy loam and sown with cucumber (Sagamihanjiro), followed by growing in a greenhouse for 14 days. A wettable powder of test agents prepared according to Formulation Example 11 was diluted to a predetermined concentration with water, and foliage application of the dilution was carried out so as to adhere the dilution sufficiently to the surfaces of leaves of the grown cucumber young seedling. After air-drying, gray mold fungus was inoculated on the surfaces of leaves of the young seedling, and the young seedling was grown in the dark at 10° C. and a high humidity for 4 days, after which the infection rate (%) was investigated.

[2] = system: gray mold fungi sensitive to benzimidazole type fungicidal compounds; test: Test Example 17: cucumber gray mold, benzimidazole-sensitive fungus; settings: 20 ppm; cucumber seedling
Method: (§1) Each of plastic pots was filled with sandy loam and sown with cucumber (Sagamihanjiro), followed by growing in a greenhouse for 14 days. A wettable powder of test agents prepared according to Formulation Example 59 was diluted to a predetermined concentration with water, and foliage application of the dilution was carried out so as to adhere the dilution sufficiently to the surfaces of leaves of the grown cucumber young seedling. After air-drying, each of gray mold fungi sensitive and tolerant, respectively, to benzimidazole type fungicidal compounds was inoculated on the surfaces of leaves of the young seedling, and the young seedling was grown in the dark at 10° C. and a high humidity for 4 days, after which the infection rate (%) was investigated.

[3] = system: tomato late blight fungus (Phytophthora infestans); type: in vivo; settings: 10 ppm; tomato plant, 1 week at 24° C.
[4] = system: grape downy mildew fungus; test: Test Example 9: grape downy mildew, foliage application then inoculation; settings: 10 ppm; grape seedling
Method: (§2) Each of plastic pots was filled with sandy loam and sown with grape (Berry A), followed by growing in a greenhouse for 40 days. […] Then, the young seedling was inoculated with a suspension of zoosporangia of grape downy mildew fungus by spraying. After the inoculation, the young seedling was allowed to stand overnight at 23° C. and a high humidity and then grown in a greenhouse for 7 days, after which the infection rate (%) was investigated.

gray mold fungus [5] = test: Test Example 11: cucumber gray mold, foliage application before inoculation; settings: 20 ppm; cucumber seedling
Method: Each of plastic pots was filled with sandy loam and sown with cucumber (Sagamihanjiro), followed by growing in a greenhouse for 14 days. A wettable powder of test agents prepared according to Formulation Example 35 was diluted to a predetermined concentration with water, and foliage application of the dilution was carried out so as to adhere the dilution sufficiently to the surfaces of leaves of the grown cucumber young seedling. After air-drying, gray mold fungus was inoculated on the surfaces of leaves of the young seedling, and the young seedling was grown in the dark at 10° C. and a high humidity for 4 days, after which the infection rate (%) was investigated.

[6] = system: grape downy mildew fungus (Plasmopara viticola); test: Test Example 2: grape downy mildew, spray then inoculation, infection rate; type: in vivo; settings: 10 ppm; grape plant, 1 week at 24° C.
From the text: A grape plant (cultivar: Berry A) was planted in each pot and was sprayed with a sufficient volume of a dilution with a predetermined concentration of a wettable powder obtained according to Formulation Example 5, after the plant put out a fourth leaf.

[7] = system: gray mold fungi tolerant to benzimidazole type fungicidal compounds; test: Test Example 17: cucumber gray mold, benzimidazole-tolerant (resistant) fungus; settings: 20 ppm; cucumber seedling
Method: as §1

apple scab fungus [8] = test: Test Example 13: apple scab, foliage application then inoculation; type: in vivo, Venturia inaequalis; settings: 0.5 ppm; apple seedling
[9] = system: gray mold fungi sensitive to benzimidazole type fungicidal compounds; test: Test Example 12: cucumber gray mold, benzimidazole-sensitive fungus; settings: 20 ppm; cucumber seedling
Method: Each of plastic pots was filled with sandy loam and sown with cucumber (Sagamihanjiro), followed by growing in a greenhouse for 14 days. A wettable powder of test agents prepared according to Formulation Example 41 was diluted to a predetermined concentration with water, and foliage application of the dilution was carried out so as to adhere the dilution sufficiently to the surfaces of leaves of the grown cucumber young seedling. After air-drying, each of gray mold fungi sensitive and tolerant, respectively, to benzimidazole type fungicidal compounds was inoculated on the surfaces of leaves of the young seedling, and the young seedling was grown in the dark at 10° C. and a high humidity for 4 days, after which the infection rate (%) was investigated.

[10] = system: grape powdery mildew fungus (Uncinula necator); test: Test Example 16: grape powdery mildew, spray then inoculation; type: in vivo; settings: 10 ppm; grape plant, 3 weeks at 24° C.
[11] = system: grape powdery mildew fungus (Uncinula necator); test: Test Example 14: grape powdery mildew, spray then inoculation; type: in vivo; settings: 1 ppm; grape plant, 3 weeks at 24° C.
apple scab fungus [12] = test: Test Example 8: apple scab, foliage application then inoculation; type: in vivo, Venturia inaequalis; settings: 0.5 ppm; apple seedling
[13] = system: grape downy mildew fungus; test: Test Example 6: grape downy mildew, foliage application then inoculation; settings: 1 ppm; grape seedling
Method: as §2

[14] = system: tomato late blight fungus (Phytophthora infestans); type: in vivo; settings: 10 ppm; tomato plant, 1 week at 24° C.; remark: listed apart in the source
[15] = system: tomato late blight fungus; type: in vivo, Phytophthora infestans; settings: 10 ppm; tomato seedling
gray mold fungus [16] = test: Test Example 4: cucumber gray mold, foliage application after inoculation; settings: 20 ppm; cucumber seedling, applied after inoculation
Method: Each of plastic pots was filled with sandy loam and sown with cucumber (Sagamihanjiro), followed by growing in a greenhouse for 14 days. Gray mold fungus was inoculated on the surfaces of leaves of the grown cucumber young seedling, and the young seedling was grown in the dark at 10° C. and a high humidity for 2 days and then at a temperature of 23° C. for 3 days. A wettable powder of test agents prepared according to Formulation Example 11 was diluted to a predetermined concentration with water, and foliage application of the dilution was carried out so as to adhere the dilution sufficiently to the surfaces of leaves of the cucumber young seedling. After the spraying, the young seedling was grown in the dark at 10° C. and a high humidity for 3 days, and then the infection rate (%) was investigated.

[17] = system: tomato late blight fungus; type: in vivo, Phytophthora infestans; settings: 5 ppm; tomato seedling
[18] = system: grape downy mildew fungus; test: Test Example 7: grape downy mildew, foliage application then inoculation; settings: 2 ppm; grape seedling
Method: as §2

[19] = system: gray mold fungi tolerant to benzimidazole type fungicidal compounds; test: Test Example 12: cucumber gray mold, benzimidazole-tolerant (resistant) fungus; settings: 20 ppm; cucumber seedling
Method: Each of plastic pots was filled with sandy loam and sown with cucumber (Sagamihanjiro), followed by growing in a greenhouse for 14 days. […] After air-drying, each of gray mold fungi sensitive and tolerant, respectively, to benzimidazole type fungicidal compounds was inoculated on the surfaces of leaves of the young seedling, and the young seedling was grown in the dark at 10° C. and a high humidity for 4 days, after which the infection rate (%) was investigated.

In the case of `CNC(=O)C(=NOC)c1ccccc1COc1cc(C)ccc1C` [Compound (Ie), N-methyl-α-methoxyimino-2-[(2,5-dimethylphenoxy)methyl]phenylacetamide], the “Infection rate (%)” value (gray mold fungus [1]) is reported as 25%, the “Infection rate (%) Sensitive fungus” value [2] is reported as 25% and the “Infection rate (%)” value [3] is reported as 25%. For the same molecule, the “Infection rate (%)” value [4] was 25%, the “Infection rate (%)” value (gray mold fungus [5]) was 25% and the “Infection rate (%)” value [6] was 25%. The “Infection rate (%) Resistant fungus” value [7] was 25%, the “Infection rate (%)” value (apple scab fungus [8]) was 20% and the “Infection rate (%) Sensitive fungus” value [9] was 25%. The “Infection rate (%)” value [10] was 25%, the “Infection rate (%)” value [11] was 25% and the “Infection rate (%)” value (apple scab fungus [12]) was 20%. The “Infection rate (%)” value [13] was 25%, the “Infection rate (%)” value [14] was 25% and the “Infection rate (%)” value [15] was 20%. For the same molecule, the “Infection rate (%)” value (gray mold fungus [16]) was 25%, the “Infection rate (%)” value [17] was 25% and the “Infection rate (%)” value [18] was 20%. The “Infection rate (%) Resistant fungus” value [19] was 25%.
